{"source": "paper PMC8111499", "about": "“GW117: A novel serotonin (5‐HT2C) receptor antagonist and melatonin (MT1/MT2) receptor agonist with potential antidepressant‐like activity in rodents” (CNS Neuroscience & Therapeutics, 2021)", "key": {"[1]": {"test_system": "mice", "assay": "Tail suspension test in mice", "assay_type": "in vivo, ICR mice", "settings": "oral, 10, 20 or 40 mg/kg, vs. vehicle", "protocol": "The tail suspension test (TST) was conducted as described earlier. ^28 , ^29 Eighty naive mice were randomly divided into eight treatment groups (n = 10/group). All mice received a single dose of the drug (p.o.). After 60 min of gavage administration, mice were suspended from the top of the apparatus (25 × 25 × 35 cm) using tape about 1 cm from the tail tip. The duration of immobility was recorded in the last 4 min for a total of 6 min. When mice are passively suspended immobile, they are judged to be stationary."}, "[2]": {"target": "T1, 5‐HT2C receptor (Rattus norvegicus, UniProt P08909)", "T1 construct": "5‐HT2C receptor membrane protein was extracted from rat hippocampus and a stably transfected HEK293 cell line; from tissue; host or cells: rat hippocampus", "T1 sequence (P08909 33-460)": "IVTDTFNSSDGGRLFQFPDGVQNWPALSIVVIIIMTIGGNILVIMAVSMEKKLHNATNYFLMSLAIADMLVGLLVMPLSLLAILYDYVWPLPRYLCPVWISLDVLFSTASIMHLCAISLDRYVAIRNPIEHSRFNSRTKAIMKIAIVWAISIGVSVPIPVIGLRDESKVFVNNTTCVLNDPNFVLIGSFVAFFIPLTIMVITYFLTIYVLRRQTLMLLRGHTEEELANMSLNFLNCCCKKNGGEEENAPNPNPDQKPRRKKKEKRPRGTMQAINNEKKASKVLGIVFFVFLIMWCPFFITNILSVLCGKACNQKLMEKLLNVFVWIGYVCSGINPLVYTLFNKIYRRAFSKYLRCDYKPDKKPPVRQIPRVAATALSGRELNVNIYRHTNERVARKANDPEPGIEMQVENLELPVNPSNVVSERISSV", "assay": "5‐HT2C receptor binding assay ([3H]‐LSD competition)", "settings": "mean ± SEM, three independent experiments", "protocol": "Hippocampal membrane preparations were obtained using previously described methods. ^24 , ^25 , ^26 Briefly, rats were decapitated and their brains were rapidly removed. Next, the hippocampus was dissected and subsequently homogenized in 40 volumes of ice‐cold buffer (50 mM Tris‐HCl Buffer, pH 7.4) and then centrifuged at 40,000 × g at 4°C for 10 min. The particles were re‐suspended and centrifuged again. In order to remove endogenous monoamines, the final suspension was incubated at 37°C for 20 min and then centrifuged as usual. The final pellets were frozen at −80°C at once for up to 1 week.\nHuman MT1/MT2 receptor membrane proteins were obtained from Perkin‐Elmer (ES‐620 [MT1] and ES‐621 [MT2]). The stably transfected 5‐HT2C receptor HEK293 cell line was prepared using a nucleus‐cytoplasm‐membrane preparation kit (Applagin Technologies Inc.). Briefly, cells were harvested at 4°C, 110 00 × g and centrifugation for 5 min. Homogenize pellets in the assay buffer (50 mM Tris‐HCl buffer containing 120 mM NaCl and 5 mM KCl, pH 7.4) and then centrifuged twice at 4°C, 36,000 × g for 15 min. […]\nReceptor membrane protein, 5‐HT2C (50 μl), was added to all the tubes. Non‐specific binding was determined by the presence of unlabeled 10 μM 5‐HT and pre‐reacted for 30 min. […] Finally, 1 ml of scintillation fluid was added and the radioactive intensity measured by liquid scintillation counting."}, "[3]": {"target": "T2, MT2 receptor (Homo sapiens, UniProt P49286)", "T2 construct": "purchased Perkin‐Elmer ES‐621", "T2 sequence (P49286 1-362)": "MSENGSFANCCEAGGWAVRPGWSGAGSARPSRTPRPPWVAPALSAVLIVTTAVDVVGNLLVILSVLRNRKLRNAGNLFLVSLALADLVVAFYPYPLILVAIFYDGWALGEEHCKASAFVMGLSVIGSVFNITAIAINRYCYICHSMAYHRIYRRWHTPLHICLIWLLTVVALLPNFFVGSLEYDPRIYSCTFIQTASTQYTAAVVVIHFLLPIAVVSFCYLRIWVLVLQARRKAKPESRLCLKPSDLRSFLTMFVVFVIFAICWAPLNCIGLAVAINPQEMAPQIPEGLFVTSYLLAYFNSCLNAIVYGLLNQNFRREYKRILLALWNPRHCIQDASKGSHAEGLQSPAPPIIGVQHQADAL", "assay": "[35S]‐GTPγS binding assay, MT2", "assay_type": "biochemical", "settings": "[35S]‐GTPγS binding; read-out: maximal increase over basal binding (% Emax), MT2 receptor", "protocol": "(§1) This experiment was mentioned earlier. ^27 In short, HEK293 cell membrane stably expressing human 5‐HT2C receptors or rat hippocampal tissue membrane or MT1/MT2 receptors was re‐suspended in buffer (50 mmol/L Tris, 100 mmol/L NaCl, 5 mmol/L MgCl2·6H2O, 0.1 mmol/L EDTA‐Na2·6H2O, 0.2 mmol/L EGTA, pH 7.4) and incubated with the test compound (100 μM GDP, 0.2 nM [^35S]‐GTP, or [^3H]PIP) for 60 min at 28℃. At the end of the experiment, Whatman GF/C filters pre‐soaked with distilled water were used for rapid filtration followed by washing with 5 ml of ice‐cold Tris buffer. Determination of non‐specific binding in the presence of GTPγS and radioactivity was measured by liquid scintillation counting. Calculation of the concentration produces a half‐maximal effect (EC50) and the maximal increase above the baseline value."}, "[4]": {"test_system": "CUS rats", "assay": "Novelty‐suppressed feeding test in the CUS model", "assay_type": "in vivo", "settings": "chronic, 10 mg/kg", "protocol": "In order to further examine the antidepressant effects of GW117, chronic unpredictable stress (CUS) model was utilized; the methods were as described before. ^29 , ^31 After 1 week of training, rats underwent sucrose training of 48 h. After training, a sucrose baseline test was performed. […] Gastric gavage was given 1 h before the stress (08:00–09:00). Except for the non‐stressed group, all rats were stimulated by a series of stressors. stress methods included the following: fast on food and water (24 h), moisture cage (150 g sawdust bedding in 200 ml water), overnight illumination, low‐intensity strobe illumination (100 flashes/min), forced swimming (5 min at 10℃), white noise (110 dB), tail pinch (1 cm from tail root, 6 min), 45℃ cage tilt, and restraint (1–2 h). Stressors need to be used continuously and randomly. Non‐stressed rats received free food and water, but were required to fast for 14 h before sucrose preference test. After 4 weeks of stress, the sucrose preference test (SPT) (on day 25), open field test (OFT) (on day 28), and novelty‐suppressed feeding (NSF) test (on day 29) were carried out. […]"}, "[5]": {"target": "T3, MT1 receptor (Homo sapiens, UniProt P48039)", "T3 construct": "purchased Perkin‐Elmer ES‐620", "T3 sequence (P48039 whole entry)": "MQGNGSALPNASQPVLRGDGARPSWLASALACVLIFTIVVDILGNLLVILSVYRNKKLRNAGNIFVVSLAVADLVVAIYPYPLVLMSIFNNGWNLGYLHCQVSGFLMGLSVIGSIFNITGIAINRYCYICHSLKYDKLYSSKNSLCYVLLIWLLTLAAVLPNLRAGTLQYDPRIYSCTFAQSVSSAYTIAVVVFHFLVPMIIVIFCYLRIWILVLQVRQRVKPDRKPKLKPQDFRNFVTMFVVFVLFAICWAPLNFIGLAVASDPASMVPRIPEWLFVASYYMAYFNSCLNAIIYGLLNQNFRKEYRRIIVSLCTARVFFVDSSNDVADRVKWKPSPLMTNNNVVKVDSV", "assay": "[35S]‐GTPγS binding assay, MT1", "assay_type": "biochemical", "settings": "[35S]‐GTPγS binding; read-out: maximal increase over basal binding (% Emax), MT1 receptor", "protocol": "as §1"}, "[6]": {"test_system": "rats", "assay": "Forced swimming test in rats", "assay_type": "in vivo, Sprague Dawley (SD) rats", "settings": "oral, 40 mg/kg", "protocol": "The forced swimming test (FST) was conducted as described earlier. ^30 Eighty naive rats were randomized into eight treatment groups (n = 9‐12/group). All rats received a single drug administration (p.o.). The procedure consisted of two sessions, to be specific, a pre‐test session and a test session. A cylindrical container (diameter, 20 cm; height, 40 cm; including 30 cm of water and kept at 25℃) was used. During the pre‐test phase, rats were required to perform forced swimming for 15 min. The test session was performed 24 h later, put the rats in the same cylindrical container for 5 min and immobility duration over 5 min recorded. […] Rats were considered immobile when they entered a floating posture, specifically, immobile, passive, and with their heads above water."}, "[7]": {"test_system": "mice", "assay": "Learned helplessness paradigm in mice", "assay_type": "in vivo, ICR mice", "settings": "sub‐chronic (4 days), 10 mg/kg ig., after inescapable shock training", "protocol": "For 4 consecutive days, mice were putted into the shuttle box device (40 × 10 × 13 cm), the device was splited into two compartments, and mice could free access. In the IS group, each mouse received 360 inescapable shocks (current intensity 0.30 mA, duration 2 s, 3‐13 s variable interval, about 1 h) over four consecutive training days. Animals in the NIS group underwent the same handling without receiving the foot shocks. 10 trials were conducted on mice to screen helpless, each of which includes conditioned stimulation period (3‐s lamp on), non‐conditioned stimulation period (3‐s lamp +shock), and interval period (without any stimulus, 25 s). […] The EF values were balanced for each group in the experiment. Using Graphic State software (Coulbourn Instruments Inc.,) recorded the number of escape failures and the latency to escape."}, "[8]": {"design": "method as in PMID 31657152", "settings": "single dose; cited from earlier work"}}, "data": [{"smiles": "COc1ccc2cccc(CCNC(C)=O)c2c1", "note": "[Agomelatine, reference compound]", "values": [{"measurement": "immobility time in TST", "setting": "[1]", "value": "had no effect on immobility time"}, {"measurement": "Ki", "setting": "[2]", "value": "0.64 ± 0.25", "unit": "nM"}, {"measurement": "Emax", "setting": "[3]", "value": "101 ± 4.56", "unit": "%"}, {"measurement": "feeding latency in NSF test", "setting": "[4]", "value": "not effective"}, {"measurement": "Emax", "setting": "[5]", "value": "94 ± 7.34", "unit": "%"}, {"measurement": "immobility time in FST", "setting": "[6]", "value": "significantly decreased the immobility time"}]}, {"smiles": "CNCCC(Oc1ccc(C(F)(F)F)cc1)c1ccccc1", "note": "(stereo not drawn) [Fluoxetine, reference compound]", "values": [{"measurement": "deficit of avoidance behavior (escape latency and number of escape failures)", "setting": "[7]", "value": "significantly reversed the deficit of avoidance behavior"}]}, {"smiles": "CNC1(c2ccccc2Cl)CCCCC1=O", "note": "(stereo not drawn) [ketamine]", "values": [{"measurement": "duration of rapid antidepressant response", "setting": "[8]", "value": "at least three"}, {"measurement": "mean onset time of rapid antidepressant response", "setting": "[8]", "value": "four"}]}]}
